Laboratory results: paper PMC11488110 (Theranostics, 2024)

Experiments:
[1] = system: APP/PS1 mice; experiment: APP/PS1 transgenic mouse model of AD; type: in vivo; conditions: 30 mg/kg/day p.o. 10 days
Method: All mice and rats were housed in a temperature- and humidity-controlled environment with a 12 h light/dark cycle and ad libitum access to food and water. All procedures were performed in accordance with the National Institutes of Health Guide for the Care and Use of Laboratory Animals and approved by the Institutional Animal Care and Use Committee of Korea Institute of Science and Technology (KIST-IACUC-2022-020-1). For the pharmacokinetics study, Sprague-Dawley rats were purchased from Koatech (South Korea) and maintained in a specific pathogen-free facility (Laboratory Animal Center, Daegu-Gyeongbuk Medical Innovation Foundation). For the LPS-induced neuroinflammation model or scopolamine-induced AD model, male C57BL/6N mice were obtained from DBL (South Korea). APP/PS1 (APPswe/PSEN1dE9) transgenic mice from the Jackson Laboratory (USA; stock number 004462) were maintained as hemizygotes on the C57BL/6; C3H genetic background at the Research Animal Resources Center of KIST. 10-week-old C57BL/6N and 12-month-old APP/PS1 were used in behavioral experiments with sex- and age-matched controls.
For the neuroinflammation model, C57BL/6N mice were intraperitoneally injected daily with 0.3 mg/kg LPS (Sigma-Aldrich, L2880) dissolved in saline (0.9% sodium chloride), for 6 consecutive days. In a non-genetic AD model, we induced acute memory deficits in C57BL/6N mice by intraperitoneal injection with 1 mg/kg of scopolamine hydrobromide (Sigma-Aldrich, S0929) dissolved in saline, 30 min before the behavioral tests. At the end of the experimental period, mice were deeply anesthetized with 2% avertin (500 mg/kg, i.p.) and transcardially perfused with saline. Brains were collected from each mouse, and the hippocampus and cortex were isolated and stored at -80 °C for biochemical analysis. Brain hemispheres were postfixed in 4% paraformaldehyde overnight at 4 °C, then placed in 30% sucrose solution for 48 h at 4 °C for cryoprotection and used for histological analysis.
The Y-maze test was used to evaluate the spatial learning and memory performance of mice. The Y-maze apparatus consisted of three identical arms disposed at a 120° angle from each other (41 cm long and 7 cm wide with 15 cm high walls). Mice were placed at the end of one arm and allowed to move freely in the maze for 10 min. The arm entries were manually recorded. Spontaneous alternation was defined as consecutive entries into three different arms and the percentage of alternation was calculated based on the following equation: alternation (%) = number of alternations/(total arm entries - 2) × 100.
Fixed mouse brains were embedded in an optimal cutting temperature compound (Leica, 3801480) and serially sectioned at 30 μm in a cryostat (Thermo Fisher Scientific, HM525 NX). Coronal hippocampal sections were stored in a storage solution (30% glycerol, 30% ethylene glycol, and 30% 0.2 M sodium phosphate buffer, pH 7.2) at 4 °C until use. After washing three times with PBS, the sections were blocked for 1 h with blocking buffer (0.3% Triton X-100 and 4% normal donkey serum in 0.1 M PBS) at room temperature, followed by incubation with primary antibodies in blocking buffer overnight at 4 °C. After washing with PBS, the sections were incubated with corresponding fluorescent secondary antibodies (Jackson ImmunoResearch, Alexa Fluor) for 1 h at room temperature and washed three times with PBS. Nuclei were counterstained with 4′,6-diamidino-2-phenylindole (DAPI; Invitrogen) during the second washing step. Sections were mounted with fluorescent mounting medium (Dako). Fluorescent images were acquired with the ImageXpress Pico (Molecular Devices; 20× magnification) or LSM 800 confocal microscope (Carl Zeiss; 40× magnification). Primary antibodies used are described in Table S6.
Z-stack projected images (20 μm thickness with a step size of 2 μm or 4 μm) were analyzed using the ImageJ software (NIH). To quantify glial reactivity, the mean fluorescence intensity of GFAP or IBA1 was measured. […]

[2] = Metabolic stability assay in liver microsomes; type: in vitro ADME, rat; conditions: 1 μM, 30 min
Method: The metabolic stability assay was performed by incubation of human and selected animal liver microsomes (dog, rat, and mouse) with the test compound at a final concentration of 1 μM, in the presence of 0.5 mg/ml microsomal protein and NADPH-regeneration system, in a total volume of 100 μL phosphate buffer 100 mM (pH 7.4) at 37 °C. The incubation was started by introducing the NADPH-regeneration system and terminated by adding 40 μL of ice-cold acetonitrile at 0- and 30 min. Precipitated proteins were removed by centrifugation at 10,000 g and 4 °C for 5 min. Aliquots of the supernatant were injected onto an LC-MS/MS system. Incubations terminated prior to addition of the NADPH-regeneration system (time point, 0 min) were used as standards, defined as 100%. Percent of the parent compound remaining was calculated by comparing peak areas.
Ta b l e S2 . CYP inhibition, microsomal stability, and hERG in hibition of 5a .
CYP inhibitiona Microsomal stabilityb
( % of c ont rol ac ti vit y) (% of remaining compound) hERG inhibitionc (IC50, μ M) […]
aCytochrome P450 (CYP450) enzyme activity was measured by incubating CYP450 enzyme isotype-specific substrates and liver microsomes in the presence of the test compound (10 μM) for 15 min. […]

## Cc1cc(SCc2[se]c(-c3ccc(C(F)(F)F)cc3)nc2C)ccc1OCC(=O)O [Compound 5a, {2-Methyl-4-[4-methyl-2-(4-trifluoromethyl-phenyl)-selenazol-5-yl-methylsulfanyl]-phenoxy}-acetic acid]
[1]
  Astrocytic hypertrophy (Sholl analysis): significantly suppressed
  BACE1 levels in cortical homogenates: significantly diminished
  GFAP and IBA1 immunoreactivity, dentate gyrus: significantly inhibited
  Gfap mRNA in hippocampus homogenates: reduced levels
  Number and area of thioflavin-S Aβ plaques, cortex and hippocampus: significant reduction in the number and area of Aβ plaques
  Number of microglia per plaque: significant increase
  Overall tau hyperphosphorylation in the brain: inhibiting overall tau hyperphosphorylation
  Phagolysosome area within plaque-associated microglia and internalized Aβ area: increased the phagolysosome area
  Plaque-associated BACE1 accumulation, hippocampus: significantly reduced
  Y-maze spontaneous alternation: prevented the decrease in alternation percentage
  Y-maze total number of arm entries: without inducing any changes
[1]; not significant
  AT8-positive phosphorylated tau around Aβ plaques: tend to decrease
[2]
  Microsomal stability, Rat (% of remaining compound): 73.3 % of remaining compound
